Molecules are shown by their SMILES.
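Note: ALL cell lines in 384-well plates, five doses spanning 10,000-fold, each plate scaled between vehicle and 100 µmol/L benzalkonium chloride controls, sDSS an adapted area-under-curve metric.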

The first assay has as its system COG-LL-319h. Nature of the assay: selective drug sensitivity score (sDSS, relative to normal bone marrow) (sDSS (score)); higher = more potent and effective on the cell line relative to normal bone marrow cells. To be noted: 72 h.
For `Nc1ccccc1NC(=O)c1ccc(CNC(=O)OCc2cccnc2)cc1` [Entinostat] (top concentration 10000 nM), the “selective drug sensitivity score” value came to 12.7.
In the case of `C#Cc1cccc(Nc2ncnc3cc(OCCOC)c(OCCOC)cc23)c1` [Erlotinib] (top concentration 10000 nM), the “selective drug sensitivity score” value was found to be 16.2.
As to `O=C(Nc1nc2cccc(-c3ccc(CN4CCS(=O)(=O)CC4)cc3)n2n1)C1CC1` [Filgotinib] (top concentration 10000 nM), the “selective drug sensitivity score” value was -3.74.
Same read-out and setting: under `C[C@H]1C=C2C(=O)O[C@H]3CC[C@@H](C1)[C@@]23O` [Galiellalactone] (top concentration 25000 nM) stands 7.46.
Still for that read-out and setting: in the case of `CN(C)C1CCN(C(=O)c2ccc(NC(=O)Nc3ccc(-c4nc(N5CCOCC5)nc(N5CCOCC5)n4)cc3)cc2)CC1` [Gedatolisib] (top concentration 1000 nM) it was -0.04.
Same read-out and setting: in the case of `Nc1ccn([C@@H]2O[C@H](CO)[C@@H](O)C2(F)F)c(=O)n1` [Gemcitabine] (top concentration 1000 nM) it was 20.5.
On to `COc1cc2c(cc1-c1c(C)noc1C)ncc1[nH]c(=O)n([C@H](C)c3ccccn3)c12` [I-BET151] (top concentration 10000 nM), for which the “selective drug sensitivity score” value turned out to be 10.7.
In the case of `O=C1CCc2c(Oc3ccc4c(c3)[C@@H]3[C@H](O4)[C@H]3c3nc4cc(C(F)(F)F)ccc4[nH]3)ccnc2N1` [Lifirafenib (BGB-283)] (top concentration 10000 nM), the “selective drug sensitivity score” value was -0.52.
The same measure, in the same setting: under `NC(=O)N1CCC(CC(=O)N2CCC([C@H]3c4ncc(Br)cc4CCc4cc(Cl)cc(Br)c43)CC2)CC1` [Lonafarnib] (top concentration 100000 nM) stands 7.04; under `NC1(c2ccc(-c3nc4ccn5c(=O)[nH]nc5c4cc3-c3ccccc3)cc2)CCC1` [MK-2206] (top concentration 1000 nM), 3.56; under `O=C(Nc1cccc(NC(=O)c2cccc(O)c2O)c1)c1cccc(O)c1O` [MST-312] (top concentration 10000 nM), 12.8.
Take `CC(=O)O[C@]1(C(C)=O)CC[C@H]2[C@@H]3C=C(C)C4=CC(=O)CC[C@]4(C)[C@H]3CC[C@@]21C` [Megestrol_acetate] (top concentration 10000 nM): the “selective drug sensitivity score” value came out at 0.42.
The same measure, in the same setting: in the case of `CO[C@@H]1[C@H](N(C)C(=O)c2ccccc2)C[C@H]2O[C@]1(C)n1c3ccccc3c3c4c(c5c6ccccc6n2c5c31)C(=O)NC4` [Midostaurin] (top concentration 10000 nM) it was 11.7.
Same read-out and setting: in the case of `CCCCCCCCCCCCCCCCOP(=O)([O-])OCC[N+](C)(C)C` [Miltefosine] (top concentration 100000 nM) it was 2.76; in that of `Nc1ccccc1NC(=O)c1ccc(CNc2nccc(-c3cccnc3)n2)cc1` [Mocetinostat] (top concentration 10000 nM), 14.7; in that of `CCNC(=O)C[C@@H]1N=C(c2ccc(Cl)cc2)c2cc(OC)ccc2-n2c(C)nnc21` [Molibresib] (top concentration 10000 nM), 6.9.
`Nc1ncnc2c1c(-c1cccc(OCc3ccccc3)c1)cn2[C@H]1C[C@@H](CN2CCC2)C1` [NVP-AEW541] (top concentration 10000 nM): the “selective drug sensitivity score” value came to 5.08.
`CN[C@@H](C)C(=O)N[C@H](C(=O)N1CCC[C@H]1c1nc(C(=O)c2ccc(F)cc2)cs1)C1CCCCC1` [NVP-LCL161] (top concentration 25000 nM): the “selective drug sensitivity score” value is -2.32.

A further assay concerns NALM-6. The description is as above. To be noted: 72 h.
Take `Nc1ccccc1NC(=O)c1ccc(CNC(=O)OCc2cccnc2)cc1` [Entinostat] (top concentration 10000 nM): the “selective drug sensitivity score” value worked out at 1.08.
For `C#Cc1cccc(Nc2ncnc3cc(OCCOC)c(OCCOC)cc23)c1` [Erlotinib] (top concentration 10000 nM), the “selective drug sensitivity score” value is -1.24.
Same read-out and setting: under `O=C(Nc1nc2cccc(-c3ccc(CN4CCS(=O)(=O)CC4)cc3)n2n1)C1CC1` [Filgotinib] (top concentration 10000 nM) stands -2.44; under `C[C@H]1C=C2C(=O)O[C@H]3CC[C@@H](C1)[C@@]23O` [Galiellalactone] (top concentration 25000 nM), 5.16.
Still for that read-out and setting: in the case of `CN(C)C1CCN(C(=O)c2ccc(NC(=O)Nc3ccc(-c4nc(N5CCOCC5)nc(N5CCOCC5)n4)cc3)cc2)CC1` [Gedatolisib] (top concentration 1000 nM) it was 5.16; in that of `Nc1ccn([C@@H]2O[C@H](CO)[C@@H](O)C2(F)F)c(=O)n1` [Gemcitabine] (top concentration 1000 nM), 14.5.
The same measure, in the same setting: under `COc1cc2c(cc1-c1c(C)noc1C)ncc1[nH]c(=O)n([C@H](C)c3ccccn3)c12` [I-BET151] (top concentration 10000 nM) stands 3.46.
Consider `O=C1CCc2c(Oc3ccc4c(c3)[C@@H]3[C@H](O4)[C@H]3c3nc4cc(C(F)(F)F)ccc4[nH]3)ccnc2N1` [Lifirafenib (BGB-283)] (top concentration 10000 nM), for which the “selective drug sensitivity score” value was 5.58.
For the compound `NC(=O)N1CCC(CC(=O)N2CCC([C@H]3c4ncc(Br)cc4CCc4cc(Cl)cc(Br)c43)CC2)CC1` [Lonafarnib] (top concentration 100000 nM), the “selective drug sensitivity score” value came out at 6.24.
Still for that read-out and setting: in the case of `NC1(c2ccc(-c3nc4ccn5c(=O)[nH]nc5c4cc3-c3ccccc3)cc2)CCC1` [MK-2206] (top concentration 1000 nM) it was 2.76; in that of `O=C(Nc1cccc(NC(=O)c2cccc(O)c2O)c1)c1cccc(O)c1O` [MST-312] (top concentration 10000 nM), 9.5.
With `CC(=O)O[C@]1(C(C)=O)CC[C@H]2[C@@H]3C=C(C)C4=CC(=O)CC[C@]4(C)[C@H]3CC[C@@]21C` [Megestrol_acetate] (top concentration 10000 nM), the “selective drug sensitivity score” value was 1.72.
The same measure, in the same setting: in the case of `CO[C@@H]1[C@H](N(C)C(=O)c2ccccc2)C[C@H]2O[C@]1(C)n1c3ccccc3c3c4c(c5c6ccccc6n2c5c31)C(=O)NC4` [Midostaurin] (top concentration 10000 nM) it was 7.56; in that of `CCCCCCCCCCCCCCCCOP(=O)([O-])OCC[N+](C)(C)C` [Miltefosine] (top concentration 100000 nM), 1.66; in that of `Nc1ccccc1NC(=O)c1ccc(CNc2nccc(-c3cccnc3)n2)cc1` [Mocetinostat] (top concentration 10000 nM), 2.94.
The same measure, in the same setting: in the case of `CCNC(=O)C[C@@H]1N=C(c2ccc(Cl)cc2)c2cc(OC)ccc2-n2c(C)nnc21` [Molibresib] (top concentration 10000 nM) it was 3.2; in that of `Nc1ncnc2c1c(-c1cccc(OCc3ccccc3)c1)cn2[C@H]1C[C@@H](CN2CCC2)C1` [NVP-AEW541] (top concentration 10000 nM), -4.02.
On the same count and under the same terms, under `CN[C@@H](C)C(=O)N[C@H](C(=O)N1CCC[C@H]1c1nc(C(=O)c2ccc(F)cc2)cs1)C1CCCCC1` [NVP-LCL161] (top concentration 25000 nM) stands -5.82.

For another assay, the system named is P30-OHKUBO. Described as above. To be noted: 72 h.
As to `Nc1ccccc1NC(=O)c1ccc(CNC(=O)OCc2cccnc2)cc1` [Entinostat] (top concentration 10000 nM), the “selective drug sensitivity score” value came to 5.68.
For the compound `C#Cc1cccc(Nc2ncnc3cc(OCCOC)c(OCCOC)cc23)c1` [Erlotinib] (top concentration 10000 nM), the “selective drug sensitivity score” value stood at 2.96.
As for `O=C(Nc1nc2cccc(-c3ccc(CN4CCS(=O)(=O)CC4)cc3)n2n1)C1CC1` [Filgotinib] (top concentration 10000 nM), the “selective drug sensitivity score” value worked out at 2.56.
The same measure, in the same setting: in the case of `C[C@H]1C=C2C(=O)O[C@H]3CC[C@@H](C1)[C@@]23O` [Galiellalactone] (top concentration 25000 nM) it was 5.26; in that of `CN(C)C1CCN(C(=O)c2ccc(NC(=O)Nc3ccc(-c4nc(N5CCOCC5)nc(N5CCOCC5)n4)cc3)cc2)CC1` [Gedatolisib] (top concentration 1000 nM), 15.2.
Same read-out and setting: in the case of `Nc1ccn([C@@H]2O[C@H](CO)[C@@H](O)C2(F)F)c(=O)n1` [Gemcitabine] (top concentration 1000 nM) it was 18; in that of `COc1cc2c(cc1-c1c(C)noc1C)ncc1[nH]c(=O)n([C@H](C)c3ccccn3)c12` [I-BET151] (top concentration 10000 nM), 7.16; in that of `O=C1CCc2c(Oc3ccc4c(c3)[C@@H]3[C@H](O4)[C@H]3c3nc4cc(C(F)(F)F)ccc4[nH]3)ccnc2N1` [Lifirafenib (BGB-283)] (top concentration 10000 nM), 5.28.
Same read-out and setting: in the case of `NC(=O)N1CCC(CC(=O)N2CCC([C@H]3c4ncc(Br)cc4CCc4cc(Cl)cc(Br)c43)CC2)CC1` [Lonafarnib] (top concentration 100000 nM) it was 7.84.

The record behind these values is the supplement of paper PMC8967900.
